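Growth conditions: 96-well plates. Treatment: test compound, 48 hours, 5 concentrations. Analysis: linear interpolation between bracketing concentrations; unreached endpoints set to highest concentration. Definition used: TGI = concentration required for complete inhibition of growth.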
Key:
Test in all cases: NCI anticancer screen, dose series, 48 h
[1] = system: NCI/ADR-RES ovarian
[2] = system: UO-31 renal
[3] = system: CCRF-CEM leukemia
[4] = system: MALME-3M melanoma
[5] = system: LOX IMVI melanoma
[6] = system: SNB-19 CNS
[7] = system: SR leukemia
[8] = system: OVCAR-8 ovarian
[9] = system: HCC-2998 colon
[10] = system: SF-539 CNS
[11] = system: KM12 colon
[12] = system: SK-MEL-2 melanoma
[13] = system: MDA-MB-231 breast
[14] = system: UACC-62 melanoma
[15] = system: HCT-116 colon
[16] = system: HS 578T breast
[17] = system: NCI-H522 lung
[18] = system: ACHN renal
[19] = system: HT29 colon
[20] = system: 786-0 renal
[21] = system: SF-295 CNS
[22] = system: MOLT-4 leukemia
[23] = system: NCI-H23 lung
[24] = system: COLO 205 colon
[25] = system: A549 NSCLC
[26] = system: DU-145 prostate
[27] = system: HCT-15 colon
[28] = system: SF-268 CNS
[29] = system: HOP-92 NSCLC
[30] = system: SN12C renal
[31] = system: MDA-MB-435
[32] = system: U251 CNS
[33] = system: A498 renal
[34] = system: OVCAR-5 ovarian
[35] = system: SK-MEL-28 melanoma
[36] = system: SK-MEL-5 melanoma
[37] = system: OVCAR-3 ovarian
[38] = system: SK-OV-3 ovarian
[39] = system: BT-549 breast
[40] = system: NCI-H226 lung
[41] = system: TK-10 renal
[42] = system: SW-620 colon
[43] = system: MCF7 breast
[44] = system: EKVX NSCLC
[45] = system: MDA-N
[46] = system: RPMI-8226 leukemia
[47] = system: HL-60(TB) leukemia
[48] = system: M14 melanoma
[49] = system: PC-3 prostate
[50] = system: CAKI-1 renal
[51] = system: RXF 393 renal
[52] = system: HOP-62 NSCLC
[53] = system: T-47D breast
[54] = system: OVCAR-4 ovarian
[55] = system: UACC-257 melanoma
[56] = system: SNB-75 CNS
[57] = system: IGROV1 ovarian
[58] = system: K-562 leukemia
[59] = system: NCI-H460 lung

**Q.** What does the source list for CC(C)/C(Cl)=N/OC(=O)Nc1ccc(OC(F)(F)F)cc1?
**A.** TGI [1]: 33.6 µM; TGI [2]: 23.8 µM; TGI [3]: 5.08 µM; TGI [4]: 6.5 µM; TGI [5]: 5.89 µM; TGI [6]: 31.6 µM; TGI [7]: 8.44 µM; TGI [8]: 33.5 µM; TGI [9]: 30.5 µM; TGI [10]: 31.3 µM; TGI [11]: 30.3 µM; TGI [12]: 28.1 µM; TGI [13]: 32.5 µM; TGI [14]: 30.2 µM; TGI [15]: 18 µM; TGI [16]: 43 µM; TGI [17]: 2.81 µM; TGI [18]: 25.1 µM; TGI [19]: 35.9 µM; TGI [20]: 19.6 µM; TGI [21]: 33.1 µM; TGI [22]: > 77.9 µM; TGI [23]: 30.9 µM; TGI [24]: 3.26 µM; TGI [25]: 34.8 µM; TGI [26]: 31.5 µM; TGI [27]: 18.8 µM; TGI [28]: 39.1 µM; TGI [29]: 3.71 µM; TGI [30]: 31.7 µM; TGI [31]: 25.3 µM; TGI [32]: 31.2 µM; TGI [33]: 32.9 µM; TGI [34]: 29.2 µM; TGI [35]: 26.6 µM; TGI [36]: 21.3 µM; TGI [37]: 32.6 µM; TGI [38]: 31.9 µM; TGI [39]: 29.8 µM; TGI [40]: 23.5 µM; TGI [41]: 29.3 µM; TGI [42]: 3.27 µM; TGI [43]: 28 µM; TGI [44]: 22.9 µM; TGI [45]: 26.2 µM; TGI [46]: 8.97 µM; TGI [47]: 5.76 µM; TGI [48]: 12 µM; TGI [49]: 30.4 µM; TGI [50]: 9.55 µM; TGI [51]: 18.3 µM; TGI [52]: 31.7 µM; TGI [53]: 25.8 µM; TGI [54]: 16.7 µM; TGI [55]: 26.6 µM; TGI [56]: 29 µM; TGI [57]: 30.5 µM; TGI [58]: 4.15 µM; TGI [59]: 31.2 µM

**Q.** COc1ccc(OC)c2sc(N3C(=O)/C(=C/c4cccc([N+](=O)[O-])c4)N=C3c3ccccc3)nc12 was tested. Which TGI [1] did it give?
**A.** Its TGI is over 100 µM.

**Q.** And the TGI [2]?
**A.** The TGI was over 100 µM.

**Q.** And the TGI [3]?
**A.** The TGI was 78.2 µM.

**Q.** What about the TGI [4] of the same compound?
**A.** The TGI was over 100 µM.

**Q.** And the TGI [5]?
**A.** The TGI was 62.1 µM.

**Q.** What about the TGI [6] of the same compound?
**A.** The TGI was over 100 µM.

**Q.** What about the TGI [7] of the same compound?
**A.** The TGI was 70.3 µM.

**Q.** And the TGI [8]?
**A.** Its TGI is over 100 µM.

**Q.** What about the TGI [9] of the same compound?
**A.** Its TGI is over 100 µM.

**Q.** What about the TGI [10] of the same compound?
**A.** Its TGI is over 100 µM.

**Q.** And the TGI [11]?
**A.** Its TGI is over 100 µM.

**Q.** And the TGI [12]?
**A.** The TGI was over 100 µM.

**Q.** What about the TGI [13] of the same compound?
**A.** Its TGI is over 100 µM.

**Q.** And the TGI [14]?
**A.** The TGI was over 100 µM.

**Q.** And the TGI [15]?
**A.** The TGI was over 100 µM.

**Q.** What about the TGI [16] of the same compound?
**A.** The TGI was over 100 µM.

**Q.** And the TGI [17]?
**A.** The TGI was over 100 µM.

**Q.** And the TGI [18]?
**A.** Its TGI is over 100 µM.

**Q.** What about the TGI [19] of the same compound?
**A.** The TGI was over 100 µM.

**Q.** And the TGI [20]?
**A.** Its TGI is over 100 µM.

**Q.** And the TGI [21]?
**A.** Its TGI is over 100 µM.

**Q.** And the TGI [22]?
**A.** Its TGI is 47.4 µM.

**Q.** And the TGI [23]?
**A.** Its TGI is over 100 µM.

**Q.** And the TGI [24]?
**A.** The TGI was over 100 µM.

**Q.** And the TGI [25]?
**A.** Its TGI is over 100 µM.

**Q.** What about the TGI [26] of the same compound?
**A.** Its TGI is over 100 µM.

**Q.** And the TGI [27]?
**A.** Its TGI is over 100 µM.

**Q.** What about the TGI [28] of the same compound?
**A.** The TGI was over 100 µM.

**Q.** What about the TGI [29] of the same compound?
**A.** The TGI was over 100 µM.

**Q.** And the TGI [30]?
**A.** Its TGI is over 100 µM.

**Q.** And the TGI [31]?
**A.** The TGI was 58.3 µM.

**Q.** What about the TGI [32] of the same compound?
**A.** Its TGI is over 100 µM.

**Q.** What about the TGI [33] of the same compound?
**A.** Its TGI is over 100 µM.

**Q.** What about the TGI [34] of the same compound?
**A.** Its TGI is over 100 µM.

**Q.** And the TGI [35]?
**A.** Its TGI is over 100 µM.

**Q.** And the TGI [36]?
**A.** Its TGI is over 100 µM.

**Q.** And the TGI [37]?
**A.** Its TGI is over 100 µM.

**Q.** And the TGI [38]?
**A.** Its TGI is over 100 µM.

**Q.** And the TGI [39]?
**A.** Its TGI is over 100 µM.

**Q.** What about the TGI [41] of the same compound?
**A.** The TGI was over 100 µM.

**Q.** And the TGI [42]?
**A.** The TGI was 95.2 µM.

**Q.** And the TGI [43]?
**A.** The TGI was 48.9 µM.

**Q.** What about the TGI [44] of the same compound?
**A.** Its TGI is over 100 µM.

**Q.** What about the TGI [45] of the same compound?
**A.** The TGI was over 100 µM.

**Q.** And the TGI [46]?
**A.** Its TGI is 61.2 µM.

**Q.** What about the TGI [47] of the same compound?
**A.** The TGI was 59.4 µM.

**Q.** And the TGI [48]?
**A.** Its TGI is over 100 µM.

**Q.** And the TGI [49]?
**A.** The TGI was over 100 µM.

**Q.** And the TGI [50]?
**A.** Its TGI is over 100 µM.

**Q.** And the TGI [51]?
**A.** Its TGI is over 100 µM.

**Q.** And the TGI [52]?
**A.** The TGI was over 100 µM.

**Q.** What about the TGI [53] of the same compound?
**A.** Its TGI is 64.2 µM.

**Q.** And the TGI [55]?
**A.** The TGI was over 100 µM.

**Q.** And the TGI [56]?
**A.** The TGI was over 100 µM.

**Q.** What about the TGI [57] of the same compound?
**A.** Its TGI is over 100 µM.

**Q.** What about the TGI [58] of the same compound?
**A.** Its TGI is 63.7 µM.

**Q.** And the TGI [59]?
**A.** The TGI was over 100 µM.
